# Test results published in ChEMBL document CHEMBL4251708, “Synthesis and Biological Screening of Pyrano[3,2-c]quinoline Analogues as Anti-inflammatory and Anticancer Agents” (ACS Med Chem Lett, 2018).
# The source made the active and inactive calls. The calls are words filed in the database; no cut-off is given here.
# Columns and labels:
# THP-1 [1] = assay: Antiinflammatory activity in PMA-differentiated human THP1 cells assessed as inhibition of LPS-induced TNF-alpha production at 10 uM after 24 hrs by ELISA relative to control; assay type: functional; settings: THP-1, 24 h
# THP-1 [2] = assay: Antiinflammatory activity in PMA-differentiated human THP1 cells assessed as inhibition of LPS-induced IL-6 production at 1 uM after 24 hrs by ELISA relative to control; assay type: functional; settings: THP-1, 24 h
# Calu-1 [3] = assay: Antiproliferative activity against human Calu1 cells after 48 hrs by propidium iodide staining based fluorometry; assay type: functional, cell-based; settings: Calu-1, 48 h
# [4] = test system: MIA PaCa-2 (Homo sapiens); assay: Antiproliferative activity against human MIA PaCa-2 cells at 1 uM relative to control
# THP-1 [5] = assay: Antiinflammatory activity in PMA-differentiated human THP1 cells assessed as inhibition of LPS-induced IL-6 production at 10 uM after 24 hrs by ELISA relative to control; assay type: functional; settings: THP-1, 24 h
# A-549 (Homo sapiens) = assay: Antiproliferative activity against human A-549 cells at 10 uM relative to control
# THP-1 [6] = assay: Antiinflammatory activity in PMA-differentiated human THP1 cells assessed as inhibition of LPS-induced IL-6 production after 24 hrs by ELISA; assay type: functional, cell-based; settings: THP-1, 24 h
# [7] = test system: MDA-MB-231 (Homo sapiens); assay: Antiproliferative activity against human MDA-MB-231 cells at 10 uM relative to control
# NCI-H460 [8] = assay: Antiproliferative activity against human H460 cells after 48 hrs by propidium iodide staining based fluorometry; assay type: functional, cell-based; settings: NCI-H460, 48 h
# MIA PaCa-2 = assay: Antiproliferative activity against human MIAPaCa2 cells at 10 uM relative to control; assay type: functional
# HCT-116 [9] = assay: Antiproliferative activity against human HCT116 cells after 48 hrs by propidium iodide staining based fluorometry; assay type: functional, cell-based; settings: HCT-116, 48 h
# THP-1 [10] = assay: Antiinflammatory activity in PMA-differentiated human THP1 cells assessed as inhibition of LPS-induced TNF-alpha production after 24 hrs by ELISA; assay type: functional, cell-based; settings: THP-1, 24 h
# PBMC = assay: Antiinflammatory activity in human PBMC assessed as inhibition of LPS-induced TNF-alpha production incubated for 30 mins followed by LPS addition measured after 4.5 hrs by ELISA; assay type: functional, cell-based
# ACHN [11] = assay: Antiproliferative activity against human ACHN cells after 48 hrs by propidium iodide staining based fluorometry; assay type: functional, cell-based
# THP-1 (Homo sapiens) [12] = assay: Antiinflammatory activity in human THP1 cells assessed as inhibition of IL-6 production at 10 uM relative to control; set-up: scale not given: the % may be the effect or the level left
# [13] = test system: MDA-MB-231 (Homo sapiens); assay: Antiproliferative activity against human MDA-MB-231 cells at 1 uM relative to control; settings: mda-mb-231, 1 µM
# THP-1 (Homo sapiens) [14] = assay: Antiinflammatory activity in human THP1 cells assessed as inhibition of TNF-alpha production at 10 uM relative to control; set-up: scale not given: the % may be the effect or the level left
# ACHN (Homo sapiens) [15] = assay: Antiproliferative activity against human ACHN cells at 1 uM relative to control
# THP-1 [16] = assay: Antiinflammatory activity in PMA-differentiated human THP1 cells assessed as inhibition of LPS-induced TNF-alpha production at 1 uM after 24 hrs by ELISA relative to control; assay type: functional; settings: THP-1, 24 h
# ACHN (Homo sapiens) [17] = assay: Antiproliferative activity against human ACHN cells at 10 uM relative to control
# THP-1 [18] = assay: Cytotoxicity against PMA-differentiated human THP1 cells assessed as reduction in cell viability after 4.5 hrs by MTS assay; assay type: cell-based; settings: THP-1, 4.5 h
# PANC-1 [19] = assay: Antiproliferative activity against human PANC1 cells after 48 hrs by propidium iodide staining based fluorometry; assay type: functional, cell-based; settings: PANC-1, 48 h
# ACHN [20] = assay: Antiproliferative activity against human ACHN cells at 700 nM after 48 hrs by propidium iodide staining based fluorometry relative to control; assay type: functional
# HCT-116 [21] = assay: Antiproliferative activity against human HCT116 cells at 700 nM after 48 hrs by propidium iodide staining based fluorometry relative to control; assay type: functional
# PANC-1 [22] = assay: Antiproliferative activity against human PANC1 cells at 700 nM after 48 hrs by propidium iodide staining based fluorometry relative to control; assay type: functional
# NCI-H460 [23] = assay: Antiproliferative activity against human H460 cells at 700 nM after 48 hrs by propidium iodide staining based fluorometry relative to control; assay type: functional
# Calu-1 [24] = assay: Antiproliferative activity against human Calu1 cells at 700 nM after 48 hrs by propidium iodide staining based fluorometry relative to control; assay type: functional
# ACHN [25] = assay: Antiproliferative activity against human ACHN cells at 10 uM relative to control; assay type: functional
# NCI-H460 [26] = assay: Antiproliferative activity against human H460 cells at 500 nM after 48 hrs by propidium iodide staining based fluorometry relative to control; assay type: functional
# HCT-116 [27] = assay: Antiproliferative activity against human HCT116 cells at 500 nM after 48 hrs by propidium iodide staining based fluorometry relative to control; assay type: functional
# Calu-1 [28] = assay: Antiproliferative activity against human Calu1 cells at 500 nM after 48 hrs by propidium iodide staining based fluorometry relative to control; assay type: functional
# PANC-1 [29] = assay: Antiproliferative activity against human PANC1 cells at 500 nM after 48 hrs by propidium iodide staining based fluorometry relative to control; assay type: functional
# ACHN [30] = assay: Antiproliferative activity against human ACHN cells at 500 nM after 48 hrs by propidium iodide staining based fluorometry relative to control; assay type: functional
Structure (SMILES),inhibition at 10 µM (THP-1 [1]) [%],inhibition at 1 µM (THP-1 [2]) [%],IC50 (Calu-1 [3]) [µM],Activity [4] [%],inhibition at 10 µM (THP-1 [5]) [%],Activity (A-549 (Homo sapiens)) [%],IC50 (THP-1 [6]) [µM],IC50 (NCI-H460 [8]) [µM],Activity (MIA PaCa-2) [%],IC50 (HCT-116 [9]) [µM],IC50 (THP-1 [10]) [µM],IC50 (ACHN [11]) [µM],Activity (THP-1 (Homo sapiens) [12]) [%],Activity [13] [%],Activity (THP-1 (Homo sapiens) [14]) [%],Activity (ACHN (Homo sapiens) [15]) [%],inhibition at 1 µM (THP-1 [16]) [%],Activity (ACHN (Homo sapiens) [17]) [%],IC50 (THP-1 [18]) [µM],IC50 (PANC-1 [19]) [µM],also measured
Cn1c(=O)c2c(c3ccccc31)OC(N)=C(C#N)C2c1cccc([N+](=O)[O-])c1 (centres undefined),0,0,1.1,65,79,71,0.25,1.9,70,6.6,0.3,1.6,79,53,43,79,11,83,> 10,2.5,Activity [7]: 65%; IC50 (PBMC): 0.2 µM; inhibition (PBMC): Dose-dependent effect
CN1CC[C@H](c2c(O)cc(O)c3c(=O)cc(-c4ccccc4Cl)oc23)[C@H](O)C1 [ALVOCIDIB],,,,,,,,,,,,,,,,,,,,,Activity (ACHN [20]): 71%; Activity (HCT-116 [21]): 71%; Activity (PANC-1 [22]): 78%; Activity (NCI-H460 [23]): 88%; Activity (Calu-1 [24]): 74%
Cn1c(=O)c2c(c3ccccc31)OC(N)=C(C#N)C2c1ccccc1 (centres undefined),0,0,1.2,45,66,,< 0.03,1.3,41,1,4.9,2.8,66,0,0,61,0,,> 10,1.5,inhibition (PBMC): inactive; Activity (ACHN [25]): 82%
Nc1ccn([C@@H]2O[C@H](CO)[C@@H](O)C2(F)F)c(=O)n1 [GEMCITABINE],,,,,,,,,,,,,,,,,,,,,Activity (NCI-H460 [26]): 71%; Activity (HCT-116 [27]): 73%; Activity (Calu-1 [28]): 79%; Activity (PANC-1 [29]): 74%; Activity (ACHN [30]): 73%
Cn1c(=O)c2c(c3ccccc31)OC(N)=C(C#N)C2c1ccc(F)cc1 (centres undefined),0,0,,16,66,22,,,45,,,,66,0,0,27,0,50,,,
Cn1c(=O)c2c(c3ccccc31)OC(N)=C(C#N)C2c1cccc(Br)c1 (centres undefined),0,0,0.8,61,82,78,0.08,0.8,70,0.9,0.5,0.9,82,45,38,73,2,75,10,0.8,Activity [7]: 54%; IC50 (PBMC): 0.5 µM
Cn1c(=O)c2c(c3ccccc31)OC(N)=C(C#N)C2c1ccc([N+](=O)[O-])cc1 (centres undefined),0,0,,15,0,77,,,64,,,,0,0,27,9,0,75,,,
